# Results from US20040235717A1, “Suppression of androgen receptor transactivation through new pathways to ar and ar coactivators and repressors” (priority 2001, published 2004).
# “Also recorded” adds a separate entry of the source.
# Tests used:
# AR transactivation [1] = assay: AR transactivation, MMTV-CAT reporter in DU145 cells transfected with AR; format: cell-based, human
# From the text: 250. To dissect the divergent effects of IL-6 in prostate tumor growth, Qui, Y. et al., Nature 393, 83-85 (1998); Hobisch, A. et al., Cancer Res. 58, 4640-4645 (1998); Ritchie, C. K. et al., Endocrinology 138, 1145-1150 (1997), the potential influences of IL-6 on the transactivation of AR, the master regulator of the prostate tumor growth were studied. Chang, C. et al., Science 240, 324.326 (1988); Chang, C. et al., Crit. Rev. Eukaryotic Gene Expression 5, 97-125 (1995). Because IL-6 has two major signal cascades, mitogen-activated protein kinase (MAPK) and phosphatidylinositol 3-kinase (PI3K), Qui, Y. et al., Nature 393, 83-85 (1998); Qui, Y. et al., Proc. Natl. Acad. Sci. USA 95, 3644-3649 (1998), inhibitors were applied to specifically block one of these two IL-6 signal pathways. DU145 cells were transfected for 24 h with AR and MMTV-CAT reporter gene. After transfection, the cells were serum starved for 24 h. Next, 20 μM LY294002, P098059 or vehicle was added to serum-free medium 30 min prior to IL-6 treatment. […] The cells were then harvested and AR transactivation was measured by CAT activity. […] Vlahos, C. J. et al., J. Biol. Chem. 269, 5241-5148 (1994). […] Alessi, D. R. et al., J. Biol. Chem. 270, 27489-27494 (1995).
# 251. IL-6's effect on PI3K activity was tested. After serum starvation for 24 h, LNCaP, PC-3 or DU145 cells were treated with 50 μg/ml IL-6 for 30 minutes. The cells were then harvested. PI3K activity was measured by using phosphatidylinositol (PT) as a substrate. […] The transactivation was measured by CAT activity.
# 252. Focus then turned to the two major downstream effectors of PI3K: a serine/threonine kinase (Akt/PKB) and a ribosomal S6 kinase (p70S6k). Franke, T. F. et al., Cell 88,435-437 (1997). […] The transactivation activity was determined after 24 h transfection.
# 262. The DU145 and PC-3 cells were maintained in Dulbecco's Minimum Essential Medium (DMEM) containing penicillin (25 μg/m1), streptomycin (25 μg/ml), and 5% fetal calf serum (FCS). The LNCaP cells were maintained in RPMI-1640 with 10% FCS. Transfections were performed using the calcium phosphate precipitation method, as previously described. Yeh, S. et al., Proc. Natl. Acad. Sci. USA 93, 5517-5521(1996).
# 277. The DU145 and PC-3 cells were maintained in Dulbecco's Minimum Essential Medium (DMEM) containing penicillin (25 U/ml), streptomycin (25 μg/ml), and 5% fetal calf serum (FCS). The LNCaP cells were maintained in RPMI-1640-10% FCS. Transfections were performed using the calcium phosphate precipitation method in PC-3 and DU145, as previously described. Yeh, S., Lin, H. K., Kang, H. Y., Thin, T. H., Lin, M. F. & Chang, C. (1999) Proc Natl Acad Sci U S A 96, 5458-63. LNCaP cells were transfected using SuperFect™ according to standard procedures (Qiagen).
# AR transactivation [2] = assay: AR transactivation, MMTV-luc / (ARE)4-luc luciferase reporter assay; format: cell-based; conditions: LNCaP; MMTV-luc and (ARE)4-luc; 10 nM DHT
# AR protein stability = assay: Pulse-chase labeling of AR in COS-1 cells; format: cell-based; conditions: LY294002 20 μM
# Experimental: 30. […] The cells were harvested for Western blot analysis. […] Western blot analysis was performed and AR and PTEN were detected by AR antibody or PTEN antibody. (C) PTEN-C1 cells were treated with 4 μg/ml Dox in 10% CDS media for 48 h. Total RNA was prepared and Northern blot analysis was performed using [^32P]-dCTP-labeled AR (aa, 1-389) as a probe. (D) COS-1 cells were transfected with AR along with pCDNA3 or PTEN in 10% CDS media for 16 h. […] The cell extracts were immunoprecipitated with AR antibody and subjected to SDS-PAGE followed by autoradiography. Data were from three identical results. (E) COS-1 cells were transfected with AR along with pCDNA3 or dAkt in 10% CDS media for 16 h, pulsed with [^35S]-methionine for 45 min, and then harvested at different chase times as indicated. LY294002 (20 μM) was added 2 h before pulsing with [^35S]-methionine.
# 317. Pulse-chase experiments were performed as described (Lo et al. (1999) Nat Cell Biol 1, 472-8) with some modifications. Briefly, COS-1 cells were transfected with pSG5-AR in combination with pCDNA3 or pCDNA3 PTEN in 10% CDS media for […]. Cells were grown under serum starvation conditions for 2 h in methionine/cysteine-deficient medium, and then the cells were pulsed for 45 min with 200 μCi/ml [^35S]-methionine/cysteine (NEN). […]
# Akt = Akt activity in LNCaP cells, Western blot with phospho-Akt (Ser473) antibody; format: cell-based; conditions: LNCaP cells stably transfected with dAkt
# Experimental: 18. […] (A) Akt suppressed androgen/AR-induced p21 promoter activity. […] (B) Androgen/AR-induced PC-3(AR)6 apoptosis and p21 protein expression was blocked by Akt PC-3(AR)6 was transfected with pCDNA3, cAkt, or dAkt, as indicated, for 16 h. […] (C) AR-induced p21 protein expression was enhanced by dAkt in LNCaP cells. […] LNCaP stable transfection with dAkt was confirmed by western blot assay using phospho-Akt (Ser473) antibody. […] TPA was then added for another 24 h and cell apoptosis was determined by TUNEL assay. […] IGF-1 was added for another 30 min, followed by 10 nM TPA treatment for another 24 h. The apoptosis was determined by TUNEL assay. The data are means±s.d. from three independent experiments.
# 31. […] (D) The LNCaP cells were transfected with plasmids as indicated for 16 h, and the medium was changed to 0.1% CDS media for 2 days. The cell apoptosis was determined by TUNEL assay (E) The LNCaP cells were transfected with plasmids as indicated for 16 h, harvested, and the cell extracts were subjected to SDS-PAGE. The Akt activity was determined by Western blotting using phospho(S473)-Akt antibody. (F) The U87MG cells were transfected with plasmids as indicated for 16 h, and the medium was changed 0.1% CDS media for 2 days. The cell apoptosis was determined by TUNEL assay. Data for luciferase activity and apoptosis are means±s.d. from three independent experiments.
substance,measurement,setting,value
"dAkt: dominant-negative Akt, a kinase deficient mutant, K179A",Effect on DHT-induced AR transactivation (CAT activity),AR transactivation [1]; presence of androgen,induce AR transactivation in a dose-dependent manner; also recorded: induce wtAR transactivation in a dose-dependent manner
same,Effect on p110/p110*-repressed AR transactivation,"AR transactivation [1]; rapamycin 20 nM 30 min prior to 1 nM DHT, dAkt co-transfected",reversed the p110-repressed AR transactivation; also recorded: reversed this p110*-repressed AR transactivation
same,Effect on AR transactivation,AR transactivation [2],enhanced AR transactivation in both MMTV-Luc and (ARE)4-Luc
same,AR degradation,AR protein stability,did not promote AR degradation
same,Reduction in Akt activity,Akt,50%
